From paper PMC11631053, “A receptor-based assay to study the sweet and bitter tastes of sweeteners and binary sweet blends: the SWEET project” (Chemical Senses, 2024)

Legend:
TAS2R1 = target: T1, TAS2R1 (Homo sapiens, UniProt Q9NYW7); test: Calcium mobilization assay, HEK293T-Gα16gust44 cells expressing TAS2R1; details: for Response of TAS2R1: maximal concentration tested: sucralose 100 mM, neotame 30 µM, Ace-K 300 mM, RebA 4 mM, RebM 4 mM, mogroside V 5 mM, erythritol 200 mM, D-allulose 500 mM, thaumatin 100 mM
T1 sequence (Q9NYW7 1-299): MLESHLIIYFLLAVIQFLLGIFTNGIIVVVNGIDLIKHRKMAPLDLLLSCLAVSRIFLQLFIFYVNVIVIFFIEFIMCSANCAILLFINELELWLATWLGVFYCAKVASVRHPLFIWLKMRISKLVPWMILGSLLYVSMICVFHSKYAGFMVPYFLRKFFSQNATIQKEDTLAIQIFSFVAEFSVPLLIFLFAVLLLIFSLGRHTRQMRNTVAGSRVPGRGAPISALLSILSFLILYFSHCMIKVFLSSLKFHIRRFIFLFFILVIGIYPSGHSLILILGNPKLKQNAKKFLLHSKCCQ
Experimental: (§1) Different concentration ranges were tested depending on the injected sweet compound. […] All of the concentration-receptor combinations were measured in triplicate, and each experiment was repeated at least 3 times. The Ca^2+ change was expressed as a fractional change in fluorescent light intensity: ΔF/F = (F − F0)/F0, where F was the fluorescent light intensity at each point, and F0 was the value of fluorescent light emitted prior to stimulus application. To calculate dose–response relationships, the changes in fluorescence upon stimulus application were averaged, mock-subtracted and baseline-corrected. The resulting obtained dose–response data were adjusted by using a 4-parameter logistic equation.

TAS2R3 = target: T2, TAS2R3 (Homo sapiens, UniProt Q9NYW6); test: Calcium mobilization assay, HEK293T-Gα16gust44 cells expressing TAS2R3; details: maximal concentration tested: sucralose 100 mM, neotame 30 µM, Ace-K 300 mM, RebA 4 mM, RebM 4 mM, mogroside V 5 mM, erythritol 200 mM, D-allulose 500 mM, thaumatin 100 mM
T2 sequence (Q9NYW6 1-316): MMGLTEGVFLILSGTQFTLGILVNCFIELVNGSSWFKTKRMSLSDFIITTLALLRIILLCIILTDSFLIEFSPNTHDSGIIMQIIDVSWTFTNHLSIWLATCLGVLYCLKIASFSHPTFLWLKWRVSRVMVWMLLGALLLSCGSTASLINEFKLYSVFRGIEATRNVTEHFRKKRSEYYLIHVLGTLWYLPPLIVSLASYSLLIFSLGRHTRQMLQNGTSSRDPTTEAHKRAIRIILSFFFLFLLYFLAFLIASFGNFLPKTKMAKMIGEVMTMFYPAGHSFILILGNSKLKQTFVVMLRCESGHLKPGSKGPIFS
Experimental: (§2) Different concentration ranges were tested depending on the injected sweet compound. […] All of the concentration-receptor combinations were measured in triplicate, and each experiment was repeated at least 3 times. The Ca^2+ change was expressed as a fractional change in fluorescent light intensity: ΔF/F = (F − F0)/F0, where F was the fluorescent light intensity at each point, and F0 was the value of fluorescent light emitted prior to stimulus application. To calculate dose–response relationships, the changes in fluorescence upon stimulus application were averaged, mock-subtracted and baseline-corrected. The resulting obtained dose–response data were adjusted by using a 4-parameter logistic equation. The half-maximal effective concentration (EC50) was calculated by using SigmaPlot software (Systat Software, San Jose, CA, USA) as described in supplemental Supplementary Figs. S1, S2, and S3.

TAS2R4 = target: T3, TAS2R4 (Homo sapiens, UniProt Q9NYW5); test: Calcium mobilization assay, HEK293T-Gα16gust44 cells expressing TAS2R4; details: maximal concentration tested: sucralose 100 mM, neotame 30 µM, Ace-K 300 mM, RebA 4 mM, RebM 4 mM, mogroside V 5 mM, erythritol 200 mM, D-allulose 500 mM, thaumatin 100 mM
T3 sequence (Q9NYW5 1-299): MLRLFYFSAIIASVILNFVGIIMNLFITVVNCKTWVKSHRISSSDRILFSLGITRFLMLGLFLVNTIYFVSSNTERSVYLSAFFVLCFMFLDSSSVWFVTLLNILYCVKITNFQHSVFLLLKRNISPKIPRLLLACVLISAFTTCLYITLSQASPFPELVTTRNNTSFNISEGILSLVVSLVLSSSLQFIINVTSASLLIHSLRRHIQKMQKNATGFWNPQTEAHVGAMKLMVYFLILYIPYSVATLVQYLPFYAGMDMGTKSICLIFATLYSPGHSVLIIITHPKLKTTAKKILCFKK
Experimental: as §2

TAS2R9 = target: T4, TAS2R9 (Homo sapiens, UniProt Q9NYW1); test: Calcium mobilization assay, HEK293T-Gα16gust44 cells expressing TAS2R9; details: maximal concentration tested: sucralose 100 mM, neotame 30 µM, Ace-K 300 mM, RebA 4 mM, RebM 4 mM, mogroside V 5 mM, erythritol 200 mM, D-allulose 500 mM, thaumatin 100 mM
T4 sequence (Q9NYW1 1-312): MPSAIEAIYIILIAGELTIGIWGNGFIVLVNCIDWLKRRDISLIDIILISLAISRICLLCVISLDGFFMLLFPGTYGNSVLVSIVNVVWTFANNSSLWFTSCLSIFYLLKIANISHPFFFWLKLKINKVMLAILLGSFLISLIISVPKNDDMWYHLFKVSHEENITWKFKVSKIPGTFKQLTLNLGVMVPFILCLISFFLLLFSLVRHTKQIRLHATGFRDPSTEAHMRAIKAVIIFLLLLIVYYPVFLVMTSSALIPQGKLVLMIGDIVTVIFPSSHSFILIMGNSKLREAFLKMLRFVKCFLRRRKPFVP
Experimental: as §2

TAS2R16 = target: T5, TAS2R16 (Homo sapiens, UniProt Q9NYV7); test: Calcium mobilization assay, HEK293T-Gα16gust44 cells expressing TAS2R16; details: for Response of TAS2R16: maximal concentration tested: sucralose 100 mM, neotame 30 µM, Ace-K 300 mM, RebA 4 mM, RebM 4 mM, mogroside V 5 mM, erythritol 200 mM, D-allulose 500 mM, thaumatin 100 mM
T5 sequence (Q9NYV7 1-291): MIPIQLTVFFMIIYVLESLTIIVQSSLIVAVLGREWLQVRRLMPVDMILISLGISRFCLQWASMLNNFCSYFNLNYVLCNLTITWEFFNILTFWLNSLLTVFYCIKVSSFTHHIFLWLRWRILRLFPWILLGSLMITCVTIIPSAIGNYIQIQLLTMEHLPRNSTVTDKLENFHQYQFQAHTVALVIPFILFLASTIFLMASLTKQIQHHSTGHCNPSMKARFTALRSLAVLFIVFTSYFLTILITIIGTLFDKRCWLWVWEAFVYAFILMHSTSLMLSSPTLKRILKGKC
Experimental: as §1

TAS2R40 = TAS2R40 (Homo sapiens, UniProt P59535); test: Calcium mobilization assay, HEK293T-Gα16gust44 cells expressing TAS2R40; details: maximal concentration tested: sucralose 100 mM, neotame 30 µM, Ace-K 300 mM, RebA 4 mM, RebM 4 mM, mogroside V 5 mM, erythritol 200 mM, D-allulose 500 mM, thaumatin 100 mM
Chain of TAS2R40 (P59535 whole entry): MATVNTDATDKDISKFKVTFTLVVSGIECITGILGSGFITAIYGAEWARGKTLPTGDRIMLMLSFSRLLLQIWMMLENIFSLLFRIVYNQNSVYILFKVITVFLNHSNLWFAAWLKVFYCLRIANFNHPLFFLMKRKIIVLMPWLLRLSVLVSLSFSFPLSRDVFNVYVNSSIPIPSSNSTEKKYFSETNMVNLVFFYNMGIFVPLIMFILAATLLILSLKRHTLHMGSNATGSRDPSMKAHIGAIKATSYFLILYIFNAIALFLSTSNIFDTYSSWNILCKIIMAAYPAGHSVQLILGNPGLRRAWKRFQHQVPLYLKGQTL
Experimental: as §1

TAS2R42 = target: T6, TAS2R42 (Homo sapiens, UniProt Q7RTR8); test: Calcium mobilization assay, HEK293T-Gα16gust44 cells expressing TAS2R42; details: maximal concentration tested: sucralose 100 mM, neotame 30 µM, Ace-K 300 mM, RebA 4 mM, RebM 4 mM, mogroside V 5 mM, erythritol 200 mM, D-allulose 500 mM, thaumatin 100 mM
T6 sequence (Q7RTR8 1-314): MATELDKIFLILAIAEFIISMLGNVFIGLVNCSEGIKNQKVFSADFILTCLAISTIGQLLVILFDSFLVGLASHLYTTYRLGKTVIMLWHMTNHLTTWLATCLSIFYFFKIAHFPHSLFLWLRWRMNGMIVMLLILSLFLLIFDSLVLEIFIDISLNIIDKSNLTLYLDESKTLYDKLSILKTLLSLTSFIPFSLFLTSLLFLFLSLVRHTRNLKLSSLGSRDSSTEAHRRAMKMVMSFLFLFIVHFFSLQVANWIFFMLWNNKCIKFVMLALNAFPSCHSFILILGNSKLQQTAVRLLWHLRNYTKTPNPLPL
Experimental: as §2

TAS2R45 = target: T7, TAS2R45 (Homo sapiens, UniProt P59539); test: Calcium mobilization assay, HEK293T-Gα16gust44 cells expressing TAS2R45; details: maximal concentration tested: sucralose 100 mM, neotame 30 µM, Ace-K 300 mM, RebA 4 mM, RebM 4 mM, mogroside V 5 mM, erythritol 200 mM, D-allulose 500 mM, thaumatin 100 mM
T7 sequence (P59539 1-299): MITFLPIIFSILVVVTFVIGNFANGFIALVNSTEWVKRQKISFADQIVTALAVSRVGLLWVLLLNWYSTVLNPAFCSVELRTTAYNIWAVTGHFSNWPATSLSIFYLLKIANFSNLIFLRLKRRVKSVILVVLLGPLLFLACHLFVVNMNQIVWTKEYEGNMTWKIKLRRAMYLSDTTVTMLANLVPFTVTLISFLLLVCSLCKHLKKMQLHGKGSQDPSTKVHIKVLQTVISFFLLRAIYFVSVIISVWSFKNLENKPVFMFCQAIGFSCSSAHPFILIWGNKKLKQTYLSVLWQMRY
Experimental: as §2

TAS2R38-PAV = TAS2R38-PAV (Homo sapiens, UniProt P59533, A49P/I296V); test: Calcium mobilization assay, HEK293T-Gα16gust44 cells expressing TAS2R38-PAV
Chain of TAS2R38-PAV (P59533 whole entry A49P/I296V): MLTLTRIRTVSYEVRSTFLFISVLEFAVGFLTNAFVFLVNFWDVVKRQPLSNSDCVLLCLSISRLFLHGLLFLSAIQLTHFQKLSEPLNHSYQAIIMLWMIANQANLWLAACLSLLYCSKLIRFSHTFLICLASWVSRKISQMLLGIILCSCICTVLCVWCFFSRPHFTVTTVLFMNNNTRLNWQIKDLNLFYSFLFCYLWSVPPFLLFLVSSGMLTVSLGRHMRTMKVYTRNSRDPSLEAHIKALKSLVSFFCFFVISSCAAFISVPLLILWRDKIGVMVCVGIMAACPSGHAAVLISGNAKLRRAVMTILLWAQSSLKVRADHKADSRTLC
Experimental: as §2

Row | Molecule | EC50 (TAS2R1; TAS2R1 EC50) [µM] | Response of TAS2R1 (TAS2R1) | Response of TAS2R3 (TAS2R3) | Response of TAS2R4 (TAS2R4) | Response of TAS2R9 (TAS2R9) | Response of TAS2R16 (TAS2R16) | Response of TAS2R40 (TAS2R40) | Response of TAS2R42 (TAS2R42) | Response of TAS2R45 (TAS2R45) | concentrations at which TAS2R16 was activated (TAS2R16) [mM] | concentrations at which TAS2R38-PAV was activated (TAS2R38-PAV) [mM] | EC50 (TAS2R16; read-out: TAS2R16 EC50) [µM] | EC50 (TAS2R38-PAV; read-out: TAS2R38-PAV EC50, text prints TAS2R38) [µM]
1 | OC[C@H]1O[C@H](O[C@]2(CCl)O[C@H](CCl)[C@@H](O)[C@@H]2O)[C@H](O)[C@@H](O)[C@H]1Cl [Sucralose, sucralose] | > 100000 | #^a | − | − | − | − | − | − | − |  |  |  | 
2 | COC(=O)[C@H](Cc1ccccc1)NC(=O)[C@H](CC(=O)O)NCCC(C)(C)C [Neotame] |  | − | − | − | − | − | − | − | − |  |  |  | 
3 | CC1=CC(=O)NS(=O)(=O)O1 [Ace-K, acesulfame-K] |  | − | − | − | − | − | − | − | − |  |  |  | 
4 | thaumatin |  | − | − | − | − | − | − | − | − |  |  |  | 
5 | C=C1C[C@@]23CC[C@H]4[C@@](C)(CCC[C@@]4(C)C(=O)O[C@@H]4O[C@H](CO)[C@@H](O)[C@H](O[C@@H]5O[C@H](CO)[C@@H](O)[C@H](O)[C@H]5O)[C@H]4O[C@@H]4O[C@H](CO)[C@@H](O)[C@H](O)[C@H]4O)[C@@H]2CC[C@]1(O[C@@H]1O[C@H](CO)[C@@H](O)[C@H](O[C@@H]2O[C@H](CO)[C@@H](O)[C@H](O)[C@H]2O)[C@H]1O[C@@H]1O[C@H](CO)[C@@H](O)[C@H](O)[C@H]1O)C3 [RebM, Rebaudioside M] |  | − | − | − | − | − | − | − | − |  |  |  | 
6 | O=C(CO)[C@H](O)[C@H](O)[C@H](O)CO [D-allulose] |  | − | − | − | − | + | − | + | − | > 300 | > 300 |  | 
7 | C[C@H](CC[C@@H](O[C@@H]1O[C@H](CO[C@@H]2O[C@H](CO)[C@@H](O)[C@H](O)[C@H]2O)[C@@H](O)[C@H](O)[C@H]1O[C@@H]1O[C@H](CO)[C@@H](O)[C@H](O)[C@H]1O)C(C)(C)O)[C@H]1CC[C@@]2(C)[C@@H]3CC=C4[C@@H](CC[C@H](O[C@@H]5O[C@H](CO[C@@H]6O[C@H](CO)[C@@H](O)[C@H](O)[C@H]6O)[C@@H](O)[C@H](O)[C@H]5O)C4(C)C)[C@]3(C)[C@H](O)C[C@]12C [Mogroside V, mogroside V] |  | − | − | − | − | + | − | − | − |  |  | 1180 ± 440 | 253 ± 139
8 | OC[C@@H](O)[C@@H](O)CO [Erythritol, erythritol] |  | − | − | − | − | − | − | − | − |  |  |  | 
